In patent US11576911B2, “Composition and method for treatment of depression and psychosis in humans” (Glytech LLC, priority 2012, dated 2023):
Like-named read-outs stand apart in the source and are kept apart here.

Legend:
[1] = test system: Male C57Bl/6J mice; experiment: Elevated plus maze (EPM), DOI 2 mg/kg in all conditions; type: in vivo; details: for Distance Traveled Open (DTO) Mean / Percent open (PCT) Mean: Table 1
[2] = test system: Male BalbC/J mice; experiment: Rodent forced swim test (FST), immobility time; type: in vivo
Excerpt: Male BalbC/J mice (8 weeks old) from Jackson Laboratories (Bar Harbor, Me.) were used. Upon receipt, mice were assigned unique identification numbers (tail marked) and were group housed in OPTImice cages. All animals were acclimated to the colony room for 1 week prior to testing. During the period of acclimation, animals were examined on a regular basis, handled, and weighed to assure adequate health and suitability. Animals were maintained on a 12/12 light/dark cycle. The room temperature was maintained between 20 and 23° C. with a relative humidity maintained between 30% and 70%. Chow and water were provided ad libitum for the duration of the study. All testing was performed during the animal's light cycle phase.
Mice were acclimated to the test room at least 1 hour prior to commencing the test. The forced swimming test consisted of one 6-minute session of forced swimming in individual opaque cylinders (15 cm tall×10 cm wide, 1000 ml beakers) containing fresh tap water at a temperature of 23±2° C. and a depth of 12 cm (approximately 800 ml) for each test animal. The time the animal spent immobile was recorded over the 6 min trial. Every 1 min the cumulative immobility time was recorded from the start of the session and noted on the study data record sheet. Immobility was defined as the postural position of floating in the water. The animals were generally observed with the back slightly hunched and the head above water with no movements or with small stabilizing movements of the limbs. After the swim test, each animal was placed in a pre-heated cage with a heating pad and allowed to dry.
The main variable used to represent immobility in this test was the total time immobile during the 6-min test period. Statistics were performed by analysis of variance (ANOVA) with Dunnett post-hoc testing vs. the control condition or by t-test as appropriate.
Sertraline, a known antidepressant, is used as a positive control.
For this study, further NMDAR antagonist compounds were tested for their ability to reduce immobility time in the rodent FST test, indicative of potential anti-depressant effects, and further 5-HT2AR antagonists were tested for their ability to produce reductions of time spent in the open arms of the EPM, indicative to potential liability to induce anxiety, akathisia and suicidality in humans

[3] = Pharmacokinetics of D-cycloserine in rodents (plasma, IP); type: in vivo, mice
Procedure: For this study, male C57BL/6J mice (8 weeks old) from Jackson Laboratories (Bar Harbor, Me.) were used.
For each treatment group a total of 12 mice were dosed: 4 mice were collected at 30, 60 and 120 min. Mean plasma level was computed over this time period.

[4] = test system: Male C57Bl/6J mice; details: previously demonstrated, cited from earlier work
[5] = cited from earlier work; for Serum concentration: mean dose 8.8 mg/kg, patients (Hung et al.)
[6] = acidic gastric conditions, gastric emptying up to 3 hours; cited from earlier work
[7] = Pharmacokinetics of D-cycloserine in humans (literature)

## N[C@@H]1CON=C1O [D-cycloserine, 3-Isoxazolidinone, 4-amino-, (4R)-(9CI)]
[1]; DCS 300 mg/kg vs 30 mg/kg with MDL100,907 (Table 1 lines 6,7)
  Reversal of the effects of MDL100,907 in the EPM, in words: significantly reverses the effects of MDL100,907 at a dose of 300 mg/kg, but not 30 mg/kg
[1]; DCS 300 mg/kg with aripiprazole 1 mg/kg
  Effect in the EPM in the presence of aripiprazole, in words: no significant effect
[1]; DCS 300 mg/kg with lurasidone 0.1-0.3 mg/kg
  Reversal of the effects of lurasidone in the EPM, in words: significantly reverses the effects of lurasidone
[1]; DCS 300 mg/kg with quetiapine 30 mg/kg
  Reversal of the effects of quetiapine in the EPM, in words: reversed at trend level
[1]; 30 mg/kg ip alone
  Distance Traveled Open (DTO) Mean: 295.8
  Percent open (PCT) Mean: 44.6%
[1]; 300 mg/kg ip alone
  Distance Traveled Open (DTO) Mean: 287.5
  Percent open (PCT) Mean: 45.4%
[1]; Table 6, 300 mg/kg, DOI 2 mg/kg added
  Mean distance travelled in the open arm of the EPM: 369.70
[1]; agent alone vs control, doses of Tables 1 and 2
  Effect on distance travelled in open arm / % time in open arm of EPM, in words: selectively increases % time in open arms at a dose of 300 mg/kg but not at a dose of 30 mg/kg
[2]; DCS 30 mg/kg in combination with lurasidone
  Effect on immobility in the forced swim test, in words: did not significantly reduce immobility
[2]; DCS 30 mg/kg, IP or PO (FIGS. 1 and 2)
  Effect in the forced swim test assay, in words: no significant effect
[2]; DCS 100 mg/kg or above, PO or IP (FIGS. 1 and 2)
  Effect in the forced swim test assay, in words: highly significant
[2]; DCS 300 mg/kg in combination with aripiprazole
  Effect on immobility in the forced swim test, in words: did not significantly reduce immobility
[2]; DCS 300 mg/kg in combination with brexpiprazole
  Effect on immobility in the forced swim test, in words: significantly reduced immobility
[2]; DCS 300 mg/kg in combination with lurasidone 0.2 to 3 mg/kg
  Effect on immobility in the forced swim test, in words: significantly reduced immobility
[3]; 30 mg/kg IP, mice
  Mean plasma level over 30-120 min: below 25 microgram/mL
[3]; doses of 100 mg/kg or above IP, mice
  Plasma levels over 30-120 min: greater than 25 microgram/mL
[3]; suggested from maximum tolerated dose
  Maximum tolerated blood level: approximately 125 ug/mL
[4]; DCS 300 mg/kg in combination with EMD281,014
  Distance travelled in the open arm and % time in the open arms, in words: numerical increases
[4]; DCS 300 mg/kg in the presence of MDL100,907
  Distance travelled in the open arm and % time in the open arms, in words: significantly increased
[5]; 2 hr after dosing
  Serum concentration: 19.7 microgram/mL
[5]; 6 hr after dosing
  Serum concentration: 18.1 microgram/mL
[5]; single 500 mg dose, fasting, humans (Zhu et al.)
  AUC over 24 hr, median: 214 microgram-hr/mL
[6]
  Hydrolysis of orally administered D-cycloserine during gastric emptying: up to 50%
[7]; 500 mg/day, human PK studies
  Sustained blood levels: below 25 microgram/mL
[7]; corresponding to AUC over 24 hr, 500 mg (Zhu et al.)
  Sustained plasma level, median: 8.9 microgram/mL
[7]; from dose-serum concentration relationship of Hung et al.
  Human dose required to produce a serum level in excess of 25 microgram/mL: exceeding 10 mg/kg
